These results are taken from PubChem BioAssay (NCI).

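Values below derive from 48-hour exposures of cells grown in 96-well plates, with endpoints linearly interpolated between the two concentrations bracketing the appropriate inhibition level. The concentration for full growth arrest is given as TGI.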

Among the test systems are ACHN renal; CAKI-1 renal; HCT-15 colon; IGROV1 ovarian; NCI-H23 lung; OVCAR-3 ovarian; SF-268 CNS; SF-539 CNS; SK-MEL-2 melanoma; SNB-19 CNS.
Common to all, as to experiment: inhibition of tumour cell growth, NCI panel, 48 h

On to `CCCCCCCCCCCCCCCCCC(=O)OCC1OC(OC)C(NC(=O)N(CCCl)N=O)C(O)C1O` (stereo not given), for which the TGI with ACHN renal was 47.3 µM; with CAKI-1 renal, more than 100 µM; in the experiment with HCT-15 colon, more than 100 µM; in the experiment with IGROV1 ovarian, more than 100 µM; in the experiment on NCI-H23 lung, 43 µM; in the experiment on OVCAR-3 ovarian it was 65.6 µM. The TGI in the experiment on SF-268 CNS is 26.7 µM; in the experiment on SF-539 CNS it was 24.2 µM; with SK-MEL-2 melanoma it was more than 100 µM; with SNB-19 CNS it was more than 100 µM.
In the case of `O=c1[nH]c(=O)n(CCOCP(=O)(O)O)nc1Br`, the TGI in the experiment with ACHN renal, with CAKI-1 renal, with HCT-15 colon, in the experiment with IGROV1 ovarian, in the experiment with NCI-H23 lung and with OVCAR-3 ovarian was more than 100 µM each time. Also, the TGI with SF-268 CNS, in the experiment with SF-539 CNS, with SK-MEL-2 melanoma and with SNB-19 CNS was more than 100 µM in each case.
In the case of `Cc1cc(=O)n2c3c(c4c(cc13)c(CN(C)C)cc(=O)n4C)OC2`, the TGI in the experiment with ACHN renal is 39.1 µM; in the experiment on CAKI-1 renal, 97 µM; in the experiment with HCT-15 colon, more than 56.7 µM; in the experiment on IGROV1 ovarian, 41.9 µM; in the experiment with NCI-H23 lung, 50.2 µM; in the experiment with OVCAR-3 ovarian, 80.1 µM. Moreover, the TGI with SF-268 CNS was 55.7 µM; with SF-539 CNS it was 24.2 µM; with SK-MEL-2 melanoma, 41.6 µM; with SNB-19 CNS, more than 74.6 µM.
On to `Cc1cc2c(cc1Cl)SC(c1ccccc1O)NS2(=O)=O` (stereo not given), for which the TGI in the experiment with ACHN renal is more than 100 µM; in the experiment on CAKI-1 renal it was more than 100 µM; in the experiment with HCT-15 colon, more than 100 µM; in the experiment on IGROV1 ovarian it was more than 100 µM; in the experiment with NCI-H23 lung, more than 100 µM; in the experiment with OVCAR-3 ovarian, 78.4 µM. Besides, the TGI in the experiment with SF-268 CNS, in the experiment on SF-539 CNS, in the experiment on SK-MEL-2 melanoma and in the experiment on SNB-19 CNS was more than 100 µM throughout.
In the case of `N#Cc1c(-c2ccc(Cl)cc2)c2c([nH]c1=O)-c1cc([N+](=O)[O-])ccc1CCC2`, the TGI in the experiment on ACHN renal was more than 100 µM; with CAKI-1 renal, 52.6 µM; with HCT-15 colon it was 47.6 µM; in the experiment with IGROV1 ovarian, 60.3 µM; in the experiment on NCI-H23 lung, 36.2 µM; in the experiment on OVCAR-3 ovarian, 31.8 µM. Besides, the TGI in the experiment on SF-268 CNS worked out at 44.2 µM; with SF-539 CNS, 35 µM; in the experiment on SK-MEL-2 melanoma it was 43.4 µM; in the experiment on SNB-19 CNS, 56.8 µM.
As for `O=S(=O)(O)c1ccc2c(N=Nc3ccccc3)c(O)ccc2c1`, the TGI in the experiment with ACHN renal, in the experiment on CAKI-1 renal, in the experiment with HCT-15 colon, in the experiment on IGROV1 ovarian, in the experiment on NCI-H23 lung and in the experiment on OVCAR-3 ovarian was more than 100 µM throughout. The TGI with SF-268 CNS, with SF-539 CNS, in the experiment on SK-MEL-2 melanoma and with SNB-19 CNS was more than 100 µM each time.
Turning to `COc1ccc(N=Nc2c(N)nn(C)c2N)cc1`, the TGI in the experiment on ACHN renal, in the experiment on CAKI-1 renal, in the experiment with HCT-15 colon, in the experiment with IGROV1 ovarian, in the experiment on NCI-H23 lung and in the experiment with OVCAR-3 ovarian was more than 100 µM in each case. In addition, the TGI with SF-268 CNS, with SF-539 CNS, in the experiment with SK-MEL-2 melanoma and in the experiment on SNB-19 CNS was more than 100 µM in each case.
As to `CCCCCCCCCCCCSC(=S)c1c(C)[nH]n(CCCCCCCCCCCC)c1=O`, the TGI in the experiment on ACHN renal, in the experiment with CAKI-1 renal, in the experiment with HCT-15 colon, in the experiment with IGROV1 ovarian, with NCI-H23 lung and in the experiment on OVCAR-3 ovarian was more than 100 µM in each case. Moreover, the TGI in the experiment on SF-268 CNS, with SF-539 CNS, with SK-MEL-2 melanoma and in the experiment with SNB-19 CNS was more than 100 µM in each case.
As for `CCN(CCO)CCNc1ccc(C)c2sc3ccccc3c(=O)c12`, the TGI in the experiment with ACHN renal is 15 µM; in the experiment with CAKI-1 renal it was 12.6 µM; in the experiment with HCT-15 colon it was 10.8 µM; with IGROV1 ovarian it was 12.9 µM; with NCI-H23 lung, 21.3 µM; in the experiment on OVCAR-3 ovarian, 23.3 µM. The TGI came to 20.9 µM in the experiment on SF-268 CNS, 10.3 µM in the experiment on SF-539 CNS, 9.33 µM in the experiment on SK-MEL-2 melanoma and 24.7 µM with SNB-19 CNS.
For the compound `O=C(CSSCC(=O)OCCS(=O)(=O)Nc1ccc(Br)cc1)OCCS(=O)(=O)Nc1ccc(Br)cc1`, the TGI in the experiment on ACHN renal amounted to 82.8 µM; with CAKI-1 renal, 68.4 µM; with HCT-15 colon it was 48.5 µM; in the experiment on IGROV1 ovarian, 88.7 µM; with NCI-H23 lung, 64 µM; in the experiment on OVCAR-3 ovarian it was 37.6 µM. In addition, the TGI is 63.2 µM in the experiment with SF-268 CNS, 32.8 µM with SF-539 CNS, 79.6 µM in the experiment on SK-MEL-2 melanoma and more than 100 µM in the experiment with SNB-19 CNS.
As to `O=c1[nH]c2cc([N+](=O)[O-])c(N/N=C/c3ccc(Cl)cc3Cl)c([N+](=O)[O-])c2[nH]1`, the TGI is more than 100 µM with ACHN renal; more than 100 µM in the experiment with CAKI-1 renal; more than 100 µM with HCT-15 colon; 78.3 µM in the experiment with IGROV1 ovarian; more than 100 µM with NCI-H23 lung; 35.3 µM in the experiment on OVCAR-3 ovarian. The TGI with SF-268 CNS, in the experiment with SF-539 CNS, in the experiment with SK-MEL-2 melanoma and in the experiment with SNB-19 CNS was more than 100 µM in each case.
